Tested on: MV-4-11 cells
Assay: Gene expression microarray analysis (Affymetrix PrimeView) and GSEA
Format: cell-based, human
Design: RFU PODN (11730768_x_at) / Fold change /veh PODN (11730768_x_at) / RFU LINC00158 (11744669_a_at) / Fold change /veh LINC00158 (11744669_a_at) / RFU DUSP10 (11751237_a_at) / Fold change /veh DUSP10 (11751237_a_at) / RFU ID3 (11757404_x_at) / Fold change /veh ID3 (11757404_x_at) / RFU PLEKHG5 (11737974_s_at) / Fold change /veh PLEKHG5 (11737974_s_at) / RFU LRRC4B (11730491_at) / Fold change /veh LRRC4B (11730491_at) / RFU GIMAP4 (11747438_a_at) / Fold change /veh GIMAP4 (11747438_a_at) / RFU KRT8 (11758183_x_at) / Fold change /veh KRT8 (11758183_x_at) / RFU CNN1 (11734310_a_at) / Fold change /veh CNN1 (11734310_a_at) / RFU VPS37D (11726825_at) / Fold change /veh VPS37D (11726825_at) / RFU C10orf10 (11716522_x_at) / Fold change /veh C10orf10 (11716522_x_at) / RFU KIR2DL2 /// KIR2DL4 /// KIR2DL5A /// KIR2DL5B /// KIR2DS1 /// KIR2DS2 /// KIR2DS3 /// KIR2DS4 /// KIR3DL3 /// KIR3DL3 /// KIR3DS1 (11738374_at) / Fold change /veh KIR2DL2 /// KIR2DL4 /// KIR2DL5A /// KIR2DL5B /// KIR2DS1 /// KIR2DS2 /// KIR2DS3 /// KIR2DS4 /// KIR3DL3 /// KIR3DL3 /// KIR3DS1 (11738374_at) / RFU C1QL1 (11718748_at) / Fold change /veh C1QL1 (11718748_at) / RFU TMPRSS4 (11747572_a_at) / Fold change /veh TMPRSS4 (11747572_a_at) / RFU HAMP (11756126_x_at) / Fold change /veh HAMP (11756126_x_at) / RFU RNFT2 (11725882_a_at) / Fold change /veh RNFT2 (11725882_a_at) / RFU NR4A2 (11747474_a_at) / Fold change /veh NR4A2 (11747474_a_at) / RFU ABCC12 (11746883_a_at) / Fold change /veh ABCC12 (11746883_a_at) / RFU TMEM136 (11760407_x_at) / Fold change /veh TMEM136 (11760407_x_at) / RFU CLDN22 /// WWC2 (11732394_at) / Fold change /veh CLDN22 /// WWC2 (11732394_at) / RFU HLA-DPB1 (11760878_x_at) / Fold change /veh HLA-DPB1 (11760878_x_at) / RFU SPINT1 (11716480_a_at) / Fold change /veh SPINT1 (11716480_a_at) / RFU GAP43 (11754022_s_at) / Fold change /veh GAP43 (11754022_s_at) / RFU A4GNT (11735810_at) / Fold change /veh A4GNT (11735810_at) / RFU PRB3 (11715151_x_at) / Fold change /veh PRB3 (11715151_x_at) / RFU TUBB4B (11761932_at) / Fold change /veh TUBB4B (11761932_at) / RFU CAPN14 (11732068_a_at) / Fold change /veh CAPN14 (11732068_a_at) / RFU TMCC2 (11721928_a_at) / Fold change /veh TMCC2 (11721928_a_at) / RFU IRGQ (11745062_a_at) / Fold change /veh IRGQ (11745062_a_at) / RFU FAM174B (11720279_a_at) / Fold change /veh FAM174B (11720279_a_at) / RFU TMPRSS4 (11748680_a_at) / Fold change /veh TMPRSS4 (11748680_a_at) / RFU FAM212B (11763350_a_at) / Fold change /veh FAM212B (11763350_a_at) / RFU PLEKHG5 (11743358_a_at) / Fold change /veh PLEKHG5 (11743358_a_at) / RFU ZSCAN30 (11745921_a_at) / Fold change /veh ZSCAN30 (11745921_a_at) / RFU CMKLR1 (11741424_a_at) / Fold change /veh CMKLR1 (11741424_a_at) / RFU LOC101060620 /// MAPK8IP1 (11723275_at) / Fold change /veh LOC101060620 /// MAPK8IP1 (11723275_at) / RFU SPTSSB (11747773_x_at) / Fold change /veh SPTSSB (11747773_x_at) / RFU PRSS12 (11739890_at) / Fold change /veh PRSS12 (11739890_at) / RFU BIN1 (11741810_x_at) / Fold change /veh BIN1 (11741810_x_at) / RFU WNT11 (11732464_a_at) / Fold change /veh WNT11 (11732464_a_at) / RFU C10orf10 (11716521_a_at) / Fold change /veh C10orf10 (11716521_a_at) / RFU C5orf56 (11738089_at) / Fold change /veh C5orf56 (11738089_at) / RFU CYB561 (11721691_x_at) / Fold change /veh CYB561 (11721691_x_at) / RFU ANKRD19P (11752326_a_at) / Fold change /veh ANKRD19P (11752326_a_at) / RFU OR2T12 /// OR2T33 /// OR2T8 (11738714_s_at) / Fold change /veh OR2T12 /// OR2T33 /// OR2T8 (11738714_s_at) / RFU VCAN (11748164_a_at) / Fold change /veh VCAN (11748164_a_at) / RFU JSRP1 (11732532_at) / Fold change /veh JSRP1 (11732532_at) / RFU KRTAP10-11 (11738290_x_at) / Fold change /veh KRTAP10-11 (11738290_x_at) / RFU MYO3A (11730013_a_at) / Fold change /veh MYO3A (11730013_a_at) / RFU EBF3 (11725865_a_at) / Fold change /veh EBF3 (11725865_a_at) / RFU CAMK2N1 (11719241_x_at) / Fold change /veh CAMK2N1 (11719241_x_at) / RFU C5orf56 (11738088_a_at) / Fold change /veh C5orf56 (11738088_a_at) / RFU OLFML3 (11715873_a_at) / Fold change /veh OLFML3 (11715873_a_at) / RFU LOC100653217 /// NTM (11731650_a_at) / Fold change /veh LOC100653217 /// NTM (11731650_a_at) / RFU MAPK11 (11762145_a_at) / Fold change /veh MAPK11 (11762145_a_at) / RFU FIZ1 (11724087_x_at) / Fold change /veh FIZ1 (11724087_x_at) / RFU OASL (11726364_x_at) / Fold change /veh OASL (11726364_x_at) / RFU SOX15 (11748057_x_at) / Fold change /veh SOX15 (11748057_x_at) / RFU CD79A (11719716_a_at) / Fold change /veh CD79A (11719716_a_at) / RFU HIST1H1D (11736915_at) / Fold change /veh HIST1H1D (11736915_at) / RFU CASKIN2 (11723855_a_at) / Fold change /veh CASKIN2 (11723855_a_at) / RFU LOC730098 (11760151_x_at) / Fold change /veh LOC730098 (11760151_x_at) / RFU OR4N2 (11742367_at) / Fold change /veh OR4N2 (11742367_at) / RFU PRRT2 (11749266_a_at) / Fold change /veh PRRT2 (11749266_a_at) / RFU SNX32 (11753110_a_at) / Fold change /veh SNX32 (11753110_a_at) / RFU CDHR5 (11726645_a_at) / Fold change /veh CDHR5 (11726645_a_at) / RFU RCAN1 (11760418_a_at) / Fold change /veh RCAN1 (11760418_a_at) / RFU FAM167A (11723789_a_at) / Fold change /veh FAM167A (11723789_a_at) / RFU FAM26E (11764081_at) / Fold change /veh FAM26E (11764081_at) / RFU ISYNA1 (11749810_s_at) / Fold change /veh ISYNA1 (11749810_s_at) / RFU ACY1 (11761880_at) / Fold change /veh ACY1 (11761880_at) / RFU 11764098_at / Fold change /veh 11764098_at / RFU SAMD14 (11745864_x_at) / Fold change /veh SAMD14 (11745864_x_at) / RFU NPB (11741838_a_at) / Fold change /veh NPB (11741838_a_at) / RFU TMPRSS6 (11731388_a_at) / Fold change /veh TMPRSS6 (11731388_a_at) / RFU KRTAP10-2 (11738614_at) / Fold change /veh KRTAP10-2 (11738614_at) / RFU ARHGAP8 /// PRR5-ARHGAP8 (11727945_x_at) / Fold change /veh ARHGAP8 /// PRR5-ARHGAP8 (11727945_x_at) / RFU KRTAP5-7 /// NADSYN1 (11734609_at) / Fold change /veh KRTAP5-7 /// NADSYN1 (11734609_at) / RFU RASL12 (11751679_a_at) / Fold change /veh RASL12 (11751679_a_at) / RFU CDKN2B (11736163_a_at) / Fold change /veh CDKN2B (11736163_a_at) / RFU PRF1 (11729649_at) / Fold change /veh PRF1 (11729649_at) / RFU, ZNF638 /// ZNF638-IT1 / Fold change vs veh, ZNF638 /// ZNF638-IT1 / RFU, PANK3 / Fold change vs veh, PANK3 / RFU, SH3YL1 / Fold change vs veh, SH3YL1 / RFU, ZEB2 / Fold change vs veh, ZEB2 / RFU, NRIP1 / Fold change vs veh, NRIP1 / RFU, PTTG1IP / Fold change vs veh, PTTG1IP / RFU, CAPN2 / Fold change vs veh, CAPN2 / RFU, MED14 / Fold change vs veh, MED14 / RFU, SNORA58 / Fold change vs veh, SNORA58 / RFU, C1orf63 / Fold change vs veh, C1orf63 / RFU, LRRFIP1 / Fold change vs veh, LRRFIP1 / RFU, NDUFAF7 / Fold change vs veh, NDUFAF7 / RFU, SLC12A2 / Fold change vs veh, SLC12A2 / RFU, IBTK / Fold change vs veh, IBTK / RFU, ESF1 / Fold change vs veh, ESF1 / Fold change vs veh, TMEM50B / RFU, TAOK1 / Fold change vs veh, TAOK1 / RFU, ACBD3 / Fold change vs veh, ACBD3 / RFU, TMA16 / Fold change vs veh, TMA16 / RFU, RWDD3 / Fold change vs veh, RWDD3 / RFU, BCAT1 / Fold change vs veh, BCAT1 / RFU, EDEM3 / Fold change vs veh, EDEM3 / RFU, TMEM33 / Fold change vs veh, TMEM33 / RFU, WDR75 / Fold change vs veh, WDR75 / RFU, AHCTF1 / Fold change vs veh, AHCTF1 / RFU, TFRC / Fold change vs veh, TFRC / RFU, ZDHHC17 / Fold change vs veh, ZDHHC17 / RFU, NOM1 / Fold change vs veh, NOM1 / RFU, ARL8B / Fold change vs veh, ARL8B / RFU, ZBTB11 / Fold change vs veh, ZBTB11 / RFU, TAMM41 / Fold change vs veh, TAMM41 / RFU, KIAA1704 /// LOC100996395 / Fold change vs veh, KIAA1704 /// LOC100996395 / RFU, ING1 / Fold change vs veh, ING1 / RFU, TRMT61B / Fold change vs veh, TRMT61B / RFU, FUBP3 / Fold change vs veh, FUBP3 / RFU, TP53 / Fold change vs veh, TP53 / RFU, TNKS2 / Fold change vs veh, TNKS2 / RFU, ZFP14 / Fold change vs veh, ZFP14 / RFU, ACTR2 / Fold change vs veh, ACTR2 / RFU, PPP3R1 / Fold change vs veh, PPP3R1 / RFU, PIK3R1 / Fold change vs veh, PIK3R1 / RFU, HNRNPA1 / Fold change vs veh, HNRNPA1 / RFU, RNF170 / Fold change vs veh, RNF170 / RFU, ZNF28 / Fold change vs veh, ZNF28 / RFU, RNGTT / Fold change vs veh, RNGTT / RFU, OGT / Fold change vs veh, OGT / RFU, BRD1 / Fold change vs veh, BRD1 / RFU, MARS / Fold change vs veh, MARS / RFU, ZNF655 / Fold change vs veh, ZNF655 / RFU, FAHD1 / Fold change vs veh, FAHD1 / RFU, BDP1 / Fold change vs veh, BDP1 / RFU, LRRCC1 / Fold change vs veh, LRRCC1 / RFU, ARID1A / Fold change vs veh, ARID1A / RFU, ZNF146 / Fold change vs veh, ZNF146 / RFU, ZNF330 / Fold change vs veh, ZNF330 / RFU, GPN3 / Fold change vs veh, GPN3 / RFU, C9orf123 / Fold change vs veh, C9orf123 / RFU, N4BP2L2 / Fold change vs veh, N4BP2L2 / RFU, ARFIP1 / Fold change vs veh, ARFIP1 / RFU, FAM179B / Fold change vs veh, FAM179B / RFU, BCL10 / Fold change vs veh, BCL10 / RFU, UHRF1BP1L / Fold change vs veh, UHRF1BP1L / RFU, BET1 / Fold change vs veh, BET1 / RFU, CNOT2 / Fold change vs veh, CNOT2 / RFU, ZNF268 / Fold change vs veh, ZNF268 / Fold change vs veh, ZNF507 / RFU, DGCR2 / Fold change vs veh, DGCR2 / RFU, WDSUB1 / Fold change vs veh, WDSUB1 / Fold change vs veh, HSP90B1 /// MIR3652 / RFU, ADSS / Fold change vs veh, ADSS / RFU, GK / Fold change vs veh, GK / RFU, ZNF148 / Fold change vs veh, ZNF148 / RFU, TAF9 / Fold change vs veh, TAF9 / RFU, SLC1A5 / Fold change vs veh, SLC1A5 / RFU, SLMO2 / Fold change vs veh, SLMO2 / RFU, ABCC4 / Fold change vs veh, ABCC4 / RFU, LOC101060439 /// RAP1B / Fold change vs veh, LOC101060439 /// RAP1B / RFU, RFX7 / Fold change vs veh, RFX7 / RFU, GTPBP10 / Fold change vs veh, GTPBP10 / RFU, CNEP1R1 / Fold change vs veh, CNEP1R1 / RFU, BIVM-ERCC5 /// ERCC5 / Fold change vs veh, BIVM-ERCC5 /// ERCC5 / RFU, ILF3 / Fold change vs veh, ILF3 / RFU 11762660_at / Fold change /veh 11762660_at / RFU VCAN (11757783_s_at) / Fold change /veh VCAN (11757783_s_at) / RFU DDX43 (11728927_at) / Fold change /veh DDX43 (11728927_at) / RFU KRT8 (11758188_x_at) / Fold change /veh KRT8 (11758188_x_at) / RFU NKD1 (11759106_at) / Fold change /veh NKD1 (11759106_at) / RFU SRD5A1 (11742802_a_at) / Fold change /veh SRD5A1 (11742802_a_at) / RFU TPSAB1 /// TPSB2 (11721975_s_at) / Fold change /veh TPSAB1 /// TPSB2 (11721975_s_at) / RFU GSTM3 (11746129_a_at) / Fold change /veh GSTM3 (11746129_a_at) / RFU IL23R (11737362_x_at) / Fold change /veh IL23R (11737362_x_at) / RFU TMEM51 (11727254_a_at) / Fold change /veh TMEM51 (11727254_a_at) / RFU PIWIL2 (11732686_x_at) / Fold change /veh PIWIL2 (11732686_x_at) / RFU ORM1 (11744905_x_at) / Fold change /veh ORM1 (11744905_x_at) / RFU CCDC152 (11743942_at) / Fold change /veh CCDC152 (11743942_at) / RFU ECM1 (11717891_a_at) / Fold change /veh ECM1 (11717891_a_at) / RFU IL23R (11748794_a_at) / Fold change /veh IL23R (11748794_a_at) / RFU TNFAIP8L3 (11732012_x_at) / Fold change /veh TNFAIP8L3 (11732012_x_at) / RFU MBOAT4 (11741988_at) / Fold change /veh MBOAT4 (11741988_at) / RFU 11764193_at / Fold change /veh 11764193_at / RFU TMEM53 (11763286_at) / Fold change /veh TMEM53 (11763286_at) / RFU MAGEB2 (11727129_at) / Fold change /veh MAGEB2 (11727129_at) / RFU TMEM200A (11744735_a_at) / Fold change /veh TMEM200A (11744735_a_at) / RFU CCDC152 (11751479_a_at) / Fold change /veh CCDC152 (11751479_a_at) / RFU FAM211A (11726209_a_at) / Fold change /veh FAM211A (11726209_a_at) / RFU RGS16 (11746705_a_at) / Fold change /veh RGS16 (11746705_a_at) / RFU VCAN (11755009_s_at) / Fold change /veh VCAN (11755009_s_at) / RFU RHOB (11743442_s_at) / Fold change /veh RHOB (11743442_s_at) / RFU RGS16 (11720943_a_at) / Fold change /veh RGS16 (11720943_a_at) / RFU RGS16 (11720944_at) / Fold change /veh RGS16 (11720944_at) / RFU, VPS4B / Fold change vs veh, VPS4B / RFU, CREB1 / Fold change vs veh, CREB1 / RFU, DNAJC13 / Fold change vs veh, DNAJC13 / RFU, GNAQ / Fold change vs veh, GNAQ / RFU, CDK5R1 / Fold change vs veh, CDK5R1 / RFU, ZRANB3 / Fold change vs veh, ZRANB3 / RFU, CUL4A / Fold change vs veh, CUL4A / RFU, CCNY / Fold change vs veh, CCNY / RFU, UFL1 / Fold change vs veh, UFL1 / RFU, COG3 / Fold change vs veh, COG3 / RFU, DIAPH2 / Fold change vs veh, DIAPH2 / RFU, SKA2 / Fold change vs veh, SKA2 / RFU, AFF3 / Fold change vs veh, AFF3 / RFU, LMF1 / Fold change vs veh, LMF1 / RFU, IPO11 / Fold change vs veh, IPO11 / RFU, DFFB / Fold change vs veh, DFFB / RFU, FOXP1 / Fold change vs veh, FOXP1 / RFU, CARD8 / Fold change vs veh, CARD8 / RFU, STRN3 / Fold change vs veh, STRN3 / RFU, ADK / Fold change vs veh, ADK / RFU, RASSF2 / Fold change vs veh, RASSF2 / RFU, WIPF1 / Fold change vs veh, WIPF1 / RFU, LARP1B / Fold change vs veh, LARP1B / RFU, RASA1 / Fold change vs veh, RASA1 / RFU, RB1 / Fold change vs veh, RB1 / RFU, PPFIA1 / Fold change vs veh, PPFIA1 / RFU, MAT2A / Fold change vs veh, MAT2A / RFU, CCT5 / Fold change vs veh, CCT5 / RFU, WDR92 / Fold change vs veh, WDR92 / RFU, CUX1 / Fold change vs veh, CUX1 / RFU, TTC7A / Fold change vs veh, TTC7A / RFU, TMEM135 / Fold change vs veh, TMEM135 / RFU, DEPTOR / Fold change vs veh, DEPTOR / RFU, CPM / Fold change vs veh, CPM / RFU, DNAJB6 / Fold change vs veh, DNAJB6 / RFU, CACNA2D3 / Fold change vs veh, CACNA2D3 / RFU, DTX4 / Fold change vs veh, DTX4 / RFU, TFCP2 / Fold change vs veh, TFCP2 / RFU, GMCL1 /// GMCL1P1 / Fold change vs veh, GMCL1 /// GMCL1P1 / RFU, AEBP2 / Fold change vs veh, AEBP2 / RFU, SNHG1 /// SNORD22 /// SNORD25 /// SNORD26 /// SNORD27 /// SNORD28 /// SNORD29 /// SNORD31 / Fold change vs veh, SNHG1 /// SNORD22 /// SNORD25 /// SNORD26 /// SNORD27 /// SNORD28 /// SNORD29 /// SNORD31 / Fold change (Aza/veh), C12orf56 (ProbeSet 11735607_a_at) / Fold change (ACY-1035/veh), C12orf56 (ProbeSet 11735607_a_at) / Fold change (Aza/veh), FGFR1OP (ProbeSet 11751329_s_at) / Fold change (ACY-1035/veh), FGFR1OP (ProbeSet 11751329_s_at) / Fold change (Aza/veh), VPS36 (ProbeSet 11739960_a_at) / Fold change (ACY-1035/veh), VPS36 (ProbeSet 11739960_a_at) / RFU SYPL1 (11715823_x_at) / Fold change /veh SYPL1 (11715823_x_at) / RFU IGFBP7 (11715501_s_at) / Fold change /veh IGFBP7 (11715501_s_at) / RFU REEP3 (11722064_at) / Fold change /veh REEP3 (11722064_at) / RFU IGLL1 (11728026_x_at) / Fold change /veh IGLL1 (11728026_x_at): dose or concentration left out as unconfirmed
Details: ProbeSet 11732165_x_at; LIST D

SMILES: Nc1ccc(-c2cccs2)cc1NC(=O)c1ccc2c(c1)cc(C1CC1)n2CCN1CCOCC1 [ACY-1035]
- RFU, LMF1: 59.92 RFU

Reference: article PMC5218480 (PLoS ONE, 2017)
